# “And” between values parts separate entries of the source, which are not always exact repeats. Equal entries are not always repeated.
# Tested on: NCI-H1876 complex spheroid viability
# Experiment: Anticancer human tumor NCI-H1876 cell line growth inhibition [LSD1];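 note: spheroids exposed to compounds for one week before readout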;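 for viability, T/C: 100% = DMSO vehicle-treated spheroids so lower means fewer viable cells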
# Conditions: for viability, T/C: stronger effect = lower value
# In short: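 Complex spheroids of tumor cells with HUVEC and human MSCs, exposed to iadademstat combined with other agents. Each agent tested in half-log steps from near clinical Cmax (else 10 microM top), DMSO ≤0.25%.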
# [1] = curve of first compound, second compound 0.1 µM
# [2] = curve of first compound, second compound 0.316 µM
# [3] = curve of first compound, second compound 1 µM
# [4] = curve of first compound, second compound 3.16 µM
# [5] = curve of first compound, second compound 10 µM
structure (smiles),measurement,setting,value
CC1(C)CCC(CN2CCN(c3ccc(C(=O)NS(=O)(=O)c4ccc(NCC5CCOCC5)c([N+](=O)[O-])c4)c(Oc4cnc5[nH]ccc5c4)c3)CC2)=C(c2ccc(Cl)cc2)C1 + NC1CC1c1ccc(-c2cccc(O)c2)cc1,IC50,[1],2080 nM
same,IC50,[2],2080 nM
same,IC50,[3],2170 nM
same,IC50,[4],2060 nM
same,IC50,[5],1920 nM
same,"viability, T/C","second compound 0.1 µM, first compound 0.0316 µM",111%
same,"viability, T/C","second compound 0.1 µM, first compound 0.1 µM",110%
same,"viability, T/C","second compound 0.1 µM, first compound 0.316 µM",117%
same,"viability, T/C","second compound 0.1 µM, first compound 1 µM",108%
same,"viability, T/C","second compound 0.1 µM, first compound 3.16 µM",16.6%
same,"viability, T/C","second compound 0.1 µM, first compound 10 µM",6.77%
same,"viability, T/C","second compound 0.316 µM, first compound 0.0316 µM",97.1%
same,"viability, T/C","second compound 0.316 µM, first compound 0.1 µM",85.9%
same,"viability, T/C","second compound 0.316 µM, first compound 0.316 µM",122%
same,"viability, T/C","second compound 0.316 µM, first compound 1 µM",110%
same,"viability, T/C","second compound 0.316 µM, first compound 3.16 µM",19.3%
same,"viability, T/C","second compound 0.316 µM, first compound 10 µM",7.99%
same,"viability, T/C","second compound 1 µM, first compound 0.0316 µM",99.5%
same,"viability, T/C","second compound 1 µM, first compound 0.1 µM",103%
same,"viability, T/C","second compound 1 µM, first compound 0.316 µM",105%
same,"viability, T/C","second compound 1 µM, first compound 1 µM",111%
same,"viability, T/C","second compound 1 µM, first compound 3.16 µM",23.3%
same,"viability, T/C","second compound 1 µM, first compound 10 µM",7.5%
same,"viability, T/C","second compound 3.16 µM, first compound 0.0316 µM",113%
same,"viability, T/C","second compound 3.16 µM, first compound 0.1 µM",122%
same,"viability, T/C","second compound 3.16 µM, first compound 0.316 µM",105%
same,"viability, T/C","second compound 3.16 µM, first compound 1 µM",99.8%
same,"viability, T/C","second compound 3.16 µM, first compound 3.16 µM",20.6%
same,"viability, T/C","second compound 3.16 µM, first compound 10 µM",8.68%
same,"viability, T/C","second compound 10 µM, first compound 0.0316 µM",112%
same,"viability, T/C","second compound 10 µM, first compound 0.1 µM",120%
same,"viability, T/C","second compound 10 µM, first compound 0.316 µM",110%
same,"viability, T/C","second compound 10 µM, first compound 1 µM",89.2%
same,"viability, T/C","second compound 10 µM, first compound 3.16 µM",19.8%
same,"viability, T/C","second compound 10 µM, first compound 10 µM",6.33%
CC1(C)CCC(CN2CCN(c3ccc(C(=O)NS(=O)(=O)c4ccc(NCC5CCOCC5)c([N+](=O)[O-])c4)c(Oc4cnc5[nH]ccc5c4)c3)CC2)=C(c2ccc(Cl)cc2)C1,"viability, T/C",compound 0.0316 µM,101% and 99.5%
same,"viability, T/C",compound 0.1 µM,101% and 94.4%
same,"viability, T/C",compound 0.316 µM,101% and 110%
same,"viability, T/C",compound 1 µM,95.4% and 107%
same,"viability, T/C",compound 3.16 µM,31.8% and 19.4%
same,"viability, T/C",compound 10 µM,9.13% and 6.87%
same,IC50,curve of compound,2270 nM and 2070 nM
CC1COCCN1c1cc(-c2ccnn2C)c2ccnc(-c3ccn[nH]3)c2n1 (stereo not drawn),"viability, T/C",compound 0.00316 µM,64.3% and 45%
same,"viability, T/C",compound 0.01 µM,59.2% and 33.4%
same,"viability, T/C",compound 0.0316 µM,32.8% and 13.7%
same,"viability, T/C",compound 0.1 µM,19.8% and 4.72%
same,"viability, T/C",compound 0.316 µM,10% and 3.12%
same,"viability, T/C",compound 1 µM,12.8% and 4.1%
same,IC50,curve of compound,14.6 nM and < 3.16 nM
NC1CC1c1ccc(-c2cccc(O)c2)cc1 (stereo not drawn),"viability, T/C",compound 0.1 µM,94%
same,IC50,"compound alone, run of 02/21/2022",> 10000 nM
O=C(C=Cc1cccc(S(=O)(=O)Nc2ccccc2)c1)NO,"viability, T/C",compound 0.00949 µM,101% and 104%
same,"viability, T/C",compound 0.03 µM,98.9% and 104%
same,"viability, T/C",compound 0.0949 µM,75.1% and 73.1%
same,"viability, T/C",compound 0.3 µM,27.6% and 19.1%
same,"viability, T/C",compound 0.949 µM,9.32% and 8.04%
same,"viability, T/C",compound 3 µM,2.33% and 0.42%
same,IC50,curve of compound,176 nM and 156 nM
CCN(c1cc(-c2ccc(CN3CCOCC3)cc2)cc(C(=O)NCc2c(C)cc(C)[nH]c2=O)c1C)C1CCOCC1 + NC1CCC(NC2CC2c2ccccc2)CC1,IC50,[1],> 3000 nM
same,IC50,[2],> 3000 nM
same,IC50,[3],> 3000 nM
same,IC50,[4],> 3000 nM
same,IC50,[5],> 3000 nM
same,"viability, T/C","second compound 0.1 µM, first compound 0.00949 µM",108%
same,"viability, T/C","second compound 0.1 µM, first compound 0.03 µM",103%
same,"viability, T/C","second compound 0.1 µM, first compound 0.0949 µM",104%
same,"viability, T/C","second compound 0.1 µM, first compound 0.3 µM",93.8%
same,"viability, T/C","second compound 0.1 µM, first compound 0.949 µM",85.3%
same,"viability, T/C","second compound 0.1 µM, first compound 3 µM",64%
same,"viability, T/C","second compound 0.316 µM, first compound 0.00949 µM",110%
same,"viability, T/C","second compound 0.316 µM, first compound 0.03 µM",117%
same,"viability, T/C","second compound 0.316 µM, first compound 0.0949 µM",102%
same,"viability, T/C","second compound 0.316 µM, first compound 0.3 µM",93.3%
same,"viability, T/C","second compound 0.316 µM, first compound 0.949 µM",87.1%
same,"viability, T/C","second compound 0.316 µM, first compound 3 µM",65.8%
same,"viability, T/C","second compound 1 µM, first compound 0.00949 µM",104%
same,"viability, T/C","second compound 1 µM, first compound 0.03 µM",111%
same,"viability, T/C","second compound 1 µM, first compound 0.0949 µM",102%
same,"viability, T/C","second compound 1 µM, first compound 0.3 µM",91.3%
same,"viability, T/C","second compound 1 µM, first compound 0.949 µM",84.9%
same,"viability, T/C","second compound 1 µM, first compound 3 µM",54.4%
same,"viability, T/C","second compound 3.16 µM, first compound 0.00949 µM",99.8%
same,"viability, T/C","second compound 3.16 µM, first compound 0.03 µM",109%
same,"viability, T/C","second compound 3.16 µM, first compound 0.0949 µM",106%
same,"viability, T/C","second compound 3.16 µM, first compound 0.3 µM",108%
same,"viability, T/C","second compound 3.16 µM, first compound 0.949 µM",86.3%
same,"viability, T/C","second compound 3.16 µM, first compound 3 µM",56.3%
same,"viability, T/C","second compound 10 µM, first compound 0.00949 µM",115%
same,"viability, T/C","second compound 10 µM, first compound 0.03 µM",106%
same,"viability, T/C","second compound 10 µM, first compound 0.0949 µM",97.4%
same,"viability, T/C","second compound 10 µM, first compound 0.3 µM",97.6%
same,"viability, T/C","second compound 10 µM, first compound 0.949 µM",79%
same,"viability, T/C","second compound 10 µM, first compound 3 µM",56.8%

# Source: PubChem BioAssay AID1918957 (Molecular Pharmacology Branch, DTP, NCI, 2023)
